Assays:
[1] = test system: C57/BL male mice; test: Septic shock assay (LPS plus galactosamine challenge); type: in vivo, mouse; details: 60, 20, 6 and 2 mg/kg daily IP for three days, first dose 30 minutes after challenge
Method: Groups of 10 C57/BL male mice weighing 18 to 20 g were administered a test compound, 1-carboxynaphthalene-1-carboxamide at the doses of 60, 20, 6 and 2 mg/kg, daily, by intraperitoneal (IP) injection for three consecutive days. Each animal was first challenged with lipopolysaccharide (LPS, from E. Coli, LD100 of 20 mg/animal IV) plus galactosamine (20 mg/animal IV). The first dose of test compound in a suitable vehicle was given 30 minutes after challenge, and the second and third doses were given 24 hours later on day 2 and day 3 respectively, with only the surviving animals receiving the second or third dose of the test compound. Mortality was recorded every 12 hours after challenge for the three-day testing period. 1-Carboxy-naphthalene-1-carboxamide provided a protection against mortality from septic shock of about 40%.

[2] = test system: endotoxic shock; details: in vivo; cited from earlier work
[3] = test system: human fibroblast cells lines (W138 or BJ cells); test: Proliferative capacity and lifespan of cells; type: cell-based
Method: At the time of subdivision, the media is aspirated, and the cells rinsed with phosphate buffer saline (PBS) and then trypsinized. The cells are counted with a Coulter counter and plated at a density of 10^5 cells per cm^2 in 6-well tissue culture plates in DMEM/199 medium supplemented with 10% bovine calf serum and varying amounts ([…]: from a 100× stock solution in DMEM/M199 medium) of a PARP inhibitor of Formula I as disclosed herein. This process is repeated every 7 days until the cell appear to stop dividing. The untreated (control) cells reach senescence and stop dividing after about 40 days in culture. […] The cells treated with 1 mM 3-AB will still divide after 60 days in culture.

[4] = test system: colitis in rats; details: rat, in vivo; cited from earlier work
[5] = test system: cell viability, glucose metabolism, and DNA synthesis; details: cited from earlier work
[6] = test system: focal cerebral ischemia in male Long-Evans rats; test: Focal cerebral ischemia in rats (right distal MCA cauterization with bilateral temporary CCA occlusion), infarct by TTC staining; type: in vivo, rat
Method: Focal cerebral ischemia was produced by cauterization of the right distal MCA (middle cerebral artery) with bilateral temporary common carotid artery occlusion in male Long-Evans rats for 90 minutes. All procedures performed on the animals were approved by the University Institutional Animal Care and Use Committee of the University of Pennsylvania. A total of 42 rats (weights: 230-340 g) obtained from Charles River were used in this study. The animals fasted overnight with free access to water prior to the surgical procedure.
Two hours prior to MCA occlusion, varying amounts (control, n=14; 5 mg/kg, n=7; 10 mg/kg, n=7; 20 mg/kg, n=7; and 40 mg/kg, n=7) of the compound, 3,4-dihydro-5-[4-(1-piperidinyl)-butoxy]-1(2H)-isoquinolinone (“DPQ”) were dissolved in dimethyl sulfoxide (DMSO) using a sonicator. A volume of 1.28 ml/kg of the resulting solution was injected intraperitoneally into […].
Focal cerebral ischemia was produced by cauterization of the distal portion of the right MCA with bilateral temporary common carotid artery (CCA) occlusion by the procedure of Chen et al., “A Model of Focal Ischemic Stroke in the Rat: Reproducible Extensive Cortical Infarction”, Stroke 17:738-43 (1986) and/or Liu et al., “Polyethylene Glycol-conjugated Superoxide Dismutase and Catalase Reduce Ischemic Brain Injury”, Am. J. Physiol. 256:H589-93 (1989), both of which are hereby incorporated by reference. […]
Two hours after MCA occlusion, the animals were given the same doses of the PARP inhibitor as in the pre-treatment. […] To avoid artifacts due to edema, the damaged area was calculated by subtracting the area of the normal tissue in the hemisphere ipsilateral to the stroke from the area of the hemisphere contralateral to the stroke, by the method of Swanson et al., “A Semiautomated Method for Measuring Brain Infarct Volume”, J. Cereb. […] The total volume of infarction was calculated by summation of the damaged volume of the brain slices.

With `NC(=O)C1(C(=O)O)CC=Cc2ccccc21` (centres unmarked) [1-Carboxy-naphthalene-1-carboxamide, 1-carboxynaphthalene-1-carboxamide] the “protection against mortality from septic shock” value [1] was “about 40%”.
In the case of `NC(=O)c1cccnc1` [nicotinamide], the “delayed, NO-mediated vascular failure” value [2] is given as “protects against delayed, NO-mediated vascular failure in endotoxic shock”.
For `NC(=O)c1cccc(N)c1` [3-aminobenzamide], the “lifespan and proliferative capacity of the cells” value ([3]; 10 uM) was “little or no effect”, the “lifespan and proliferative capacity of the cells” value ([3]; 100 uM) was “lengthen the lifespan of the cells” and the “lifespan and proliferative capacity of the cells” value ([3]; 1 mM) was “dramatically increases the lifespan and proliferative capacity of the cells”. For the same molecule, the “inflammatory response, morphology and energetic status of the distal colon” value [4] was “reduced the inflammatory response and restored the morphology and the energetic status of the distal colon” and the additional metabolic effects [5] was “shown to affect cell viability, glucose metabolism, and DNA synthesis”.
In the case of `NC(=O)c1ccccc1` [benzamide], the additional metabolic effects [5] is listed as “shown to affect cell viability, glucose metabolism, and DNA synthesis”.
For `O=C1NCCc2c(OCCCCN3CCCCC3)cccc21` [DPQ, 3,4-dihydro-5-[4-(1-piperidinyl)-butoxy]-1(2H)-isoquinolinone], the “cross-sectional infarct area curve (FIG. 1)” value ([6]; 5 mg/kg) was “approximately halfway between the control and the 10 mg/kg curves”, the “cross-sectional infarct area curve (FIG. 1)” value ([6]; 20 mg/kg) was “approximately halfway between the control and the 10 mg/kg curves” and the “cross-sectional infarct area curve (FIG. 1)” value ([6]; 40 mg/kg) was “close to the control”.

From patent US6380193B1, “Fused tricyclic compounds, methods and compositions for inhibiting PARP activity” (Guilford Pharmaceuticals Inc., priority 1998, dated 2002)
